Measurements published in patent US6818654B2, “Antibacterial compounds” (Abbott Laboratories, priority 2002, dated 2004).
Converted amounts (≈) assume the structure as drawn.

What was measured:
[1] = tested on: Quinoline-Resistant Streptococcus pneumoniae 7257; test: MIC, agar dilution, quinoline-resistant strain (code BB); assay type: cell-based; details: 35-37° C., 20-24 hours
[2] = tested on: Quinoline-Succeptable Streptococcus pneumoniae ATCC 6303; test: MIC, agar dilution, quinoline-susceptible strain (code AA); assay type: cell-based; details: ATCC6303, 35-37° C., 20-24 hours
Source text: Antibacterial activity of the compounds […] Committee for Clinical Laboratory Standards (1997), “Methods for dilution antimicrobial susceptibility tests for bacteria that grow aerobically,” approved standard M7-A4 (Wayne, Pa., USA). All strains tested were from the Abbott Laboratories culture collection and were either clinical isolates or reference strains obtained from the American Type Culture Collection (Manassas, Va., USA).

[3] = biological target: bacterial protein synthesis; test: Translation assay, firefly luciferase reporter system with S30 Streptococcus pneumoniae extract; assay type: biochemical; details: S30 extract from quinoline-succeptable Streptococcus pneumoniae ATCC 46919; luciferase mRNA; read-out: IC50, concentration causing 50% inhibition of bacterial protein synthesis
Experimental: Bacterial protein synthesis inhibitory activity of the compounds and the aformentioned commercially-available antibacterials was determined by translation assays performed using the firefly luciferase reporter system described by Murray et al., (2001), “Staphylococcus aureus Cell Extract Transcription-Translation Assay: Firefly Luciferase Reporter System for Evaluating Protein Translation Inhibitors,” Antimicrob. Agents Chemother. 45(6): 1900-1904, replacing the Staphylococcus aureus S30 extract described therein with S30 Streptococcus pneumoniae extract from quinoline-succeptable Streptococcus pneumoniae ATCC 46919, and replacing plasmid coding for the luciferase gene with mRNA (encoding produced by in vitro transcription from the plasmid pAS10rbs3) which encoded the luciferase gene with an upstream Streptococcus pneumoniae promoter and Shine-Dalgarno site.

SMILES | MIC [1] | MIC [2] | IC50 [3]
CCn1cc(C(=O)O)c(=O)c2cc(F)c(N3CCNCC3)cc21 [Norfloxacin] | 32 µg/mL (≈ 100 µM) | 1 µg/mL (≈ 3.13 µM) | 
CC(=O)NC[C@H]1CN(c2ccc(N3CCOCC3)c(F)c2)C(=O)O1 [Linezolid] | 0.5 µg/mL (≈ 1.48 µM) | 2 µg/mL (≈ 5.93 µM) | ~3000 nM
N[C@@H]1[C@H]2CN(c3nc4c(cc3F)c(=O)c(C(=O)O)cn4-c3ccc(F)cc3F)C[C@@H]12 [Trovafloxacin] | 4 µg/mL (≈ 9.61 µM) | 0.06 µg/mL (≈ 0.144 µM) | 
